{
  "source": "patent US7173014B2",
  "about": "“HIV-specific synthetic oligonucleotides and methods of their use” (priority 1997, dated 2007)",
  "key": {"HIV-1 (IIIB, RF and SK1)": {"system": "HIV-1 (IIIB, RF and SK1)", "experiment": "XTT-based anti-HIV assay, laboratory strains of HIV-1", "assay_type": "cell-based", "source_text": "(§1) The initial experiment performed involved evaluation of Oligos 12, 32, and 41 against three laboratory strains of HIV-1 (IIIB, RF and SK1) and one strain of HIV-2 (ROD) in parallel with the positive control compound ddC in the XTT-based anti-HIV assay. All these oligonucleotides are active against both HIV-1 and HIV-2.\nCEM-SS sells (AIDS Research and Reference Reagent Program, NIH) or other established human T cell lines used in these experiments were passaged in T-150 flasks for use in the assay. On the day preceding the assay, the cells were split 1:2 to assure they would be in an exponential growth phase at time of infection. On the day of assay the cells were washed twice with tissue culture medium and resuspended in fresh tissue cultures medium. Total cell and viability counting was performed using a hemacytometer and trypan blue dye exclusion. Cell viability was greater than 95% for the cells to be utilized in the assay. The cells were pelleted and resuspended at 2.5×10^4 cells per ml in tissue culture medium. […]\nA pretitered aliquot of virus was removed from the freezer −80° C.) and allowed to thaw slowly to room temperature in a biological safety cabinet. The virus was resuspended and diluted into tissue culture medium such that the amount of virus added to each well in a volume of 50 μl will be the amount determined to give complete cell killing at 6 days post-infection. […]\nAfter 6 days of incubation at 37° C. in a 5% CO2 incubator, the test plates were analyzed by staining with the tetrazolium dye XTT. XTT-tetrazolium is metabolized by the mitochondrial enzymes of metabolically active cells to a soluble formazan product, allowing the rapid quantitative analysis of the inhibition of HIV-induced cell killing by anti-HIV test substances. […]\nXTT solution was prepared daily as a stock of 1 mg/ml in PBS. […] Adhesive plate sealers were used in place of the lids, the sealed plate was inverted several times to mix the soluble formazan product and the plate was read spectrophotometrically at A450 nm with a Molecular Devices Vmax plate reader."}, "HIV-2 (ROD)": {"system": "HIV-2 (ROD)", "experiment": "XTT-based anti-HIV assay, HIV-2", "assay_type": "cell-based", "details": "XTT assay", "source_text": "as §1\nCEM-SS sells (AIDS Research and Reference Reagent Program, NIH) or other established human T cell lines used in these experiments were passaged in T-150 flasks for use in the assay. On the day preceding the assay, the cells were split 1:2 to assure they would be in an exponential growth phase at time of infection. On the day of assay the cells were washed twice with tissue culture medium and resuspended in fresh tissue cultures medium. Total cell and viability counting was performed using a hemacytometer and trypan blue dye exclusion. Cell viability was greater than 95% for the cells to be utilized in the assay. The cells were pelleted and resuspended at 2.5×10^4 cells per ml in tissue culture medium. Cells were added to the drug-containing plates in a volume of 50 μl.\nA pretitered aliquot of virus was removed from the freezer −80° C.) and allowed to thaw slowly to room temperature in a biological safety cabinet. The virus was resuspended and diluted into tissue culture medium such that the amount of virus added to each well in a volume of 50 μl will be the amount determined to give complete cell killing at 6 days post-infection. In general the virus pools produced with the IIIB isolate of HIV required the addition of 5 μl of virus per well.\nEach plate contained cell control wells (cells only), virus control wells (cells plus virus), drug toxicity control wells (cells plus drug only), drug colorimetric control wells (drug only) as well as experimental wells (drug plus cells plus virus).\nAfter 6 days of incubation at 37° C. in a 5% CO2 incubator, the test plates were analyzed by staining with the tetrazolium dye XTT. XTT-tetrazolium is metabolized by the mitochondrial enzymes of metabolically active cells to a soluble formazan product, allowing the rapid quantitative analysis of the inhibition of HIV-induced cell killing by anti-HIV test substances. On day 6 post-infection plates were removed from the incubator and observed. The use of round bottom microtiter plates allows rapid macroscopic analysis of the activity of a given test compound by the evaluation of pellet size. The results of the macroscopic observations were confirmed and enhanced by further microscopic analysis.\nXTT solution was prepared daily as a stock of 1 mg/ml in PBS. Phenazine methosulfate (PMS) solution was prepared at 15 mg/ml in PBS and stored in the dark at −20° C. XTT/PMS stock was prepared immediately before use by diluting the PMS 1:100 into PBS and adding 40 μl per ml of XTT solution. Fifty microliters of XTT/PMS was added to each well of the plate and the plate was incubated for an additional 4 hours at 37° C. Adhesive plate sealers were used in place of the lids, the sealed plate was inverted several times to mix the soluble formazan product and the plate was read spectrophotometrically at A450 nm with a Molecular Devices Vmax plate reader."}, "[1]": {"system": "monocyte-macrophage-tropic strains BaL and ADA", "experiment": "Anti-HIV assay in fresh human monocyte-macrophages", "assay_type": "cell-based, HIV-1", "procedure": "In addition to these T-tropic strains, the activity of the compounds was also evaluated against the monocyte-macrophage strains BaL and ADA. Oligos 12 and 32 according to the invention, as well as Oligo 41 are active against low passage clinical T-tropic strains of HIV-1. The activity of the compounds varies from strain to strain. The compounds were not active against the monocyte-macrophage-tropic strains BaL and ADA.\nFor isolation of adherent cells, 3×10^6 non-PHA stimulated peripheral blood cells were resuspended in Hanks buffered saline (with calcium and magnesium) supplemented with 10% human AB serum. The cells were placed in a 24-well microtiter plate at 37° C. for 2 hours. Non-adherent cells were removed by vigorously washing six times. The adherent cells were cultured for 7 days in RPMI 1640 tissue culture medium with 15% fetal bovine serum. The cultures were carefully monitored for confluency during this incubation period. Infection of the cells was performed with the monocytotropic HIV-1 strains BaL or ADA and the matched pair of AZT-sensitive and AZT-resistant virus isolates. Each of these virus isolates was obtained from the NIAID AIDS Research and Reference Reagent Program. High titer pools of each of these viruses have been harvested from infected cultures of peripheral blood adherent cells and frozen in 1.0 ml aliquots at −80° C. Monocyte-macrophage monolayers were infected at an MOI of 0.1. Compounds to be evaluated in the monocyte-macrophage assay are added to the monolayers shortly before infection in order to maximize the potential for identifying active compounds.\nAt 2 days post-infection, the medium was decanted and the cultures washed twice with complete medium in order to remove excess virus. […] Control curves are generated in each assay to accurately quantify the amount of capsid protein in each sample. Data was obtained by spectrophotometric analysis at 450 nm using a plate reader (Molecular Devices Vmax). P24 concentrations were calculated from the optical density values by use of the Molecular Device software package Soft Max."}, "[2]": {"system": "fresh human peripheral blood mononuclear cells", "experiment": "Toxicity in uninfected and HIV-1 infected fresh human PBMC (XTT, MTT, trypan blue, tritiated thymidine)", "assay_type": "cell-based", "procedure": "In yet another experiment, the toxicity of Oligo 41 was evaluated in uninfected and HIV-1 infected fresh human peripheral blood mononuclear cells, using a variety of quantitative endpoints. Toxicity was evaluated using the tetrazolium dyes XTT or MTT, trypan blue cell and cell viability counting and the incorporation of tritiated thymidine. Two replicate assays were performed. In the first assay, Oligo 41 was used at a high test concentration of 50 μg/ml and toxicity was evaluated on day 7. […] A second assay was performed to further evaluate toxicity at higher compound concentration and with longer exposure to the compound.\nFor the PBL assay, PHA-P stimulated cells from at least two normal donors were pooled, set in fresh medium at 2×10^6/ml, and plated in the interior wells of a 96 well round bottom microplate at 50 μL/well. Test drug dilutions were prepared at a 2× concentration in microtiter tubes, and 100 μl of each concentration was placed in appropriate wells in a standard format. Fifty microliters of a predetermined dilution of virus stock was placed in each test well. […]\nTritiated thymidine incorporation was measured in parallel cultures at day 7. […] The filters were dried, placed in a scintillation vial with 1 ml of scintillation cocktail and incorporated radioactivity was quantified on a liquid scintillation counter (e.g., Packard Tri-Carb 1900 TR450)."}},
  "data": [
    {"substance": "Oligo 41: oligonucleotide having SEQ ID NO:6; sequence not printed, not listed in TABLE 2 (UCGCACCCATCTCTCTCCUUC; chemistry not given here)", "values": [
      {"measurement": "activity against HIV-1", "setting": "HIV-1 (IIIB, RF and SK1)", "result": "active"},
      {"measurement": "level of activity against the HIV-2 strain ROD", "setting": "HIV-2 (ROD); compared with the HIV-1 strains", "result": "enhanced level of activity"},
      {"measurement": "activity against HIV-2", "setting": "HIV-2 (ROD); strain ROD", "result": "active"},
      {"measurement": "activity against monocyte-macrophage-tropic strains BaL and ADA", "setting": "[1]", "result": "not active"},
      {"measurement": "toxicity", "setting": "[2]; high test concentration 50 μg/ml, day 7, any quantitative endpoint", "result": "No toxicity was detected"},
      {"measurement": "toxicity", "setting": "[2]; high test concentration 150 μg/ml, exposure extended to 14 days", "result": "no toxicity was detected"}
    ]}
  ]
}
